Measurements taken from publication PMC2099433, “The binding site for neohesperidin dihydrochalcone at the human sweet taste receptor” (BMC Structural Biology, 2007).
Changes are numbered by the printed parent chain. Read-outs that look alike come from different tables or passages of the source. Where a SMILES comes first, the peptide text is derived from it.

Tests used:
[1] = biological target: T1, hTAS1R2 + hTAS1R3 H721A^ex2 (Homo sapiens, UniProt Q7RTX0+Q8TE23, H721A); assay: Calcium response (FLIPR), hTAS1R3 mutant coexpressed with hTAS1R2; assay type: cell-based; settings: variant H721A^ex2; for Emax: read-out: maximal signal (% of wt)
T1 construct: expressed in transfected cells; host or cells: HEK293T cells stably expressing G16Gust44
T1 sequence (Q8TE23 20-839): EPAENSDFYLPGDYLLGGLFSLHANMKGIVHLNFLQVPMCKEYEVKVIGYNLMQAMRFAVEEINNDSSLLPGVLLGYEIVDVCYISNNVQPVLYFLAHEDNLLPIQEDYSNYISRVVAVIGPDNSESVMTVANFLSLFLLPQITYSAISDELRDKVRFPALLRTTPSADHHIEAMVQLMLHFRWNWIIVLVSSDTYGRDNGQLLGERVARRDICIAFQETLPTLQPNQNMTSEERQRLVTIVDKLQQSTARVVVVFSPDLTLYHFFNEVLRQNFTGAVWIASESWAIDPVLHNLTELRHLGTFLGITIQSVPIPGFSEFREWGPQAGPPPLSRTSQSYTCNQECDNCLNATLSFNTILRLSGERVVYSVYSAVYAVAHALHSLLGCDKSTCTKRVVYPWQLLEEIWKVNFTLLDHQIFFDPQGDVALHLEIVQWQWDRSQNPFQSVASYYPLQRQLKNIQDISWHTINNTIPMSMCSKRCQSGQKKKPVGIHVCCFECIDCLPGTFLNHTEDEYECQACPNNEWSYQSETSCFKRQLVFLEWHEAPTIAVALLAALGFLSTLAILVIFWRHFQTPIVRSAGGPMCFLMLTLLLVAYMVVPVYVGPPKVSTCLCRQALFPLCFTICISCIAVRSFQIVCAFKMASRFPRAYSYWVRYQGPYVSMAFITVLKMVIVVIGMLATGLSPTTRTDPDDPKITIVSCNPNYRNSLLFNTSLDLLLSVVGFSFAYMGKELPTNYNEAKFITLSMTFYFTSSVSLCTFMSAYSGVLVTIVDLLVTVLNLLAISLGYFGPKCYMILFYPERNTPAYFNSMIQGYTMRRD
T1 sequence (Q7RTX0 21-852 H721A): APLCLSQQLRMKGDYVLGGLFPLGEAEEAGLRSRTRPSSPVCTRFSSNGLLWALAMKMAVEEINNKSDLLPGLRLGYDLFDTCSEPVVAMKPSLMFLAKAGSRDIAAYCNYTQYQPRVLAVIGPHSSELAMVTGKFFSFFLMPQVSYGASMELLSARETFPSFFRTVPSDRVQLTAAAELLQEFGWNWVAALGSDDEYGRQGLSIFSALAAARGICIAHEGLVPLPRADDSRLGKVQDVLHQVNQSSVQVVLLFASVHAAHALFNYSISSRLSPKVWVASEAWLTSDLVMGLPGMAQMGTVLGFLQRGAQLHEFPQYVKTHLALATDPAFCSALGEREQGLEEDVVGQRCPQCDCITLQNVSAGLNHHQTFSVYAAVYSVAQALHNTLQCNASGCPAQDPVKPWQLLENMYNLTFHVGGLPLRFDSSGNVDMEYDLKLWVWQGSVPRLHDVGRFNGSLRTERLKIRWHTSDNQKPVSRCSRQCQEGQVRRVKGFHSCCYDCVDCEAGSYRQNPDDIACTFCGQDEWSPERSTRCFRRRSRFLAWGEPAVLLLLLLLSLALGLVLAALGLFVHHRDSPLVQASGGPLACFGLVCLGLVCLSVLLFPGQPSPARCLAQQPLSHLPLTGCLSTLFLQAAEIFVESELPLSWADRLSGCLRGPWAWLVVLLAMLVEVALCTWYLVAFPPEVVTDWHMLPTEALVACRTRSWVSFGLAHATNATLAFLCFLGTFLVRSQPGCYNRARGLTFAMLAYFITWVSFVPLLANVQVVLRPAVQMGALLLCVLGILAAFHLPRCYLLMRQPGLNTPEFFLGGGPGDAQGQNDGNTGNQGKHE
In short: (§1)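 Read-out: FLIPR calcium signal as ΔF/F = (F-F0)/F0, corrected for mock-transfected cells. Cells were HEK293T stably carrying G16Gust44, transiently transfected with HSV-tagged receptor cDNAs and dye-loaded with Fluo4-AM 24 h post transfection.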

[2] = biological target: T2, hTAS1R2 + hTAS1R3 G804V^7.42 (Homo sapiens, UniProt Q7RTX0+Q8TE23, G804V); assay: as above; assay type: cell-based; settings: for EC50: n.r. = no response to NHDC up to highest tested concentration (6 mM), but responses to other sweeteners
T2 construct: expressed in transfected cells; host or cells: HEK293T cells stably expressing G16Gust44
T2 sequence (Q7RTX0 21-852 G804V): T1 sequence (Q7RTX0 21-852 H721A) with A701H, G784V
T2 sequence (Q8TE23 20-839): T1 sequence (Q8TE23 20-839)
In short: as §1

SMILES	EC50 [1] [mM]	Emax [1] [%]	receptor response ([2]; mutant G804V^7.42, any tested concentration)	EC50 ([2]; variant G804V^7.42)	EC50 ([2]; variant G804V^7.42, read-out: EC50) [mM]	Emax ([2]; variant G804V^7.42, read-out: maximal signal (% of wt)) [%]
COc1ccc(CCC(=O)c2c(O)cc(O[C@@H]3O[C@H](CO)[C@@H](O)[C@H](O)[C@H]3O[C@@H]3O[C@@H](C)[C@H](O)[C@@H](O)[C@H]3O)cc2O)cc1O [NHDC, neohesperidin dihydrochalcone]	0.8 ± 0.3	66 ± 10	did not respond to NHDC at any tested concentration	n.r.		
COC(=O)[C@H](Cc1ccccc1)NC(=O)[C@@H](N)CC(=O)O [aspartame] (HELM PEPTIDE1{D.F.[CO[*:1]]}$$$$V2.0)	1.6 ± 0.3	60 ± 40			1.3 ± 0.3	21 ± 2
